Measurements: US20110197293A1, “SENSE AND ANTISENSE TRANSCRIPTS OF TRPM2 AND USES THEREOF” (GIOVANNI LAVORGNA, priority 2008, published 2011)

Legend:
Assay type in all cases: cell-based, human
[1] = test system: TRPM2-AS transcript; test: qPCR of TRPM2-AS transcript after siRNA transfection in Mel Im cells; conditions: siRNA 10 nM, harvested at 24 hours, respect to mock-transfected cells
Excerpt: (§1) Beta-actin (Exons 5-6) was amplified from cDNAs using the specific primers: LC+hBactin-U 5′-TCCTCCTGGAGAAGAGCTA-3′ (SEQ ID No. 6) and LC+hBactin-L 5′-GGATGCCACAGGACTCCAT-3′ (SEQ ID No. 7) coupled to human Universal Probe Library (UPL) probe number 11 (Roche) resulting in a 124 bp fragment. TRPM2-FL (Exons 20-21) was amplified by RT-PCR from cDNAs using the specific primers: RCH_LONG_TRPM2_U 5′-ACCTCCTCATCGCCATGTT-3′ (SEQ ID No. 8) and RCH_LONG_TRPM2_L 5′-[…]-3′ (SEQ ID No. 9) coupled to human UPL probe number 11, resulting in a 68 bp fragment. TRPM2-AS (Exons 1-2) was amplified by RT-PCR from cDNAs using the specific primers: RCH-asmel-1F 5′-[…]-3′ (SEQ ID No. 10) and RCH-asmel-1R 5′-[…]-3′ (SEQ ID No. 11) coupled to human UPL probe number 57, resulting in a 61 bp fragment. TRPM2-TE was amplified from cDNAs using the primers: UPL-TSS-U 5′-GATGTTTTGGCGGAAGGAC-3′ (SEQ ID No. 12) and UPL-TSS-Rev 5′-CAGGAAGACGTGACGCAAG-3′ (SEQ ID No. 13) coupled to human UPL probe number 6, resulting in a 88 bp intronless fragment. The contribution of genomic DNA contamination to the detected signal was subtracted by running a parallel real-time quantification from a RT-minus reaction, where the RT-enzyme was substituted with water. When RNA was not available to perform the RT-minus control, the contribution of DNA contamination to the detected signal was subtracted by performing a real-time quantification on the same samples, using a couple of primers specific for the Beta-actin promoter: LC-ProBACT-U1 5′-[…]-3′ (SEQ ID No. 14) and LC-ProBACT-L1 5′-[…]-3′ (SEQ ID No. 15) coupled to human UPL probe number 81 (Roche) resulting in a 85 bp fragment. Real time PCR reactions were performed on a LightCycler 480 instrument (Roche), on 96 multiwell plates (Roche) using LightCycler 480 ProbeMaster Mix (Roche) following the manufacturer instructions. Briefly, all reactions were performed in a final 30 μl volume containing 15 μl of 2× MasterMix, 0.6 μl of each primer (20 μmol/L), 0.3 μl of the corresponding UPL probe (10 μmol/L), and 10 μl of template cDNA. Only for TRPM2-AS the reaction was supplemented with 6 μl of 5× Solution-Q (Qiagen) and the cDNA template lowered to 7 μl. The resulting mix was pre-incubated for 10 minutes at 95° C., then amplification reactions were performed by 45 repetitive cycles of denaturing for 10 seconds at 95° C., annealing for 15 seconds at 58° C. and a final extension plus single acquisition step at 72° C. for 1 second. Levels of target gene transcripts were normalized to transcript levels of a reference gene (Beta-actin) and calculated using a relative quantification model with efficiency correction. Amplification efficiency of primer pairs was calculated from serial dilutions of a representative cDNA template over a concentration range of 3 log orders. […]

[2] = test system: TRPM2-TE transcript; test: qPCR of TRPM2-TE transcript after siRNA transfection in Mel Im cells; conditions: siRNA 10 nM, harvested at 24 hours, respect to mock-transfected cells
Excerpt: as §1

[3] = test system: Melanoma cells; test: Apoptosis detection by flow cytometry (Annexin V) after siRNA transfection; conditions: 72 h after transfection
Protocol: Apoptosis was measured after a 72 h transfection with any of the following siRNA: TRPM2-AS—657, TRPM2-AS—734, TRPM2-TE—55 or the non-specific siRNA. Early and late apoptotic cells were assessed by flow cytometry using the Annexin V-Fitc Apoptosis Detection kit (Immunostep, Salamanca, Spain), following manufacturer's instructions. Data acquisition and analysis were done in a FACSort Cytometer (Becton Dickinson, Franklin Lakes, N.J.) using CellQuest and FCS Express software.

[4] = test system: CpG island located between TRPM2-AS and TRPM2-TE transcripts; test: De-novo DNA methylation of the CpG island, bisulphite sequencing of clones; conditions: Mel Im cells, liposome-encapsulated oligonucleotides 3 μM final, 24 hours
Protocol: Genomic DNA was isolated and purified with TRIzol reagent (Invitrogen) and quantified with a Nanodrop. Average 100 ng of each DNA sample were subjected to bisulphite modification with the MethylEasy Kit (Human Genetic Signatures) allowing the sulphonation reaction to proceed for no less than 8 hours at 55° C. Following conversion, 3 μl of the modified DNAs were PCR amplified with the primers CpG-8U 5′-[…]-3′ (SEQ ID No. 3) and CpG-8L 5′-[…]-3′ (SEQ ID No. 4) (1 ng/μl each) in the presence of buffer 10× (Qiagen), dNTPs (2 mmol/L), 5× Solution Q (Qiagen), Taq DNA Polymerase (3U), with the reaction conditions being: 1 minute of pre-incubation at 95° C., then amplification reactions were performed by 35 repetitive cycles of denaturing for 1 minute at 95° C., annealing for 2 minutes at 55° C. and extension for 2 minutes at 72° C. A semi-nested PCR reaction was performed in same conditions except for the forward primer changed to CpG-1U 5′-[…]-3′ (SEQ ID No. 5), using 4 μl of the previous 472 bp per product as template. The resulting 370 bp product was then gel-purified, cloned and sequenced using standard procedures.
Three phosphorothioate oligonucleotides were designed in which the cytosines in CpG dinucleotides were replaced by m^5 CpG. […]

**Q.** How did the “knock-down of TRPM2-AS transcript expression” value [1] turn out when “5′-GAAGGACCACAGAGGAAGU(dTdT)-3′ [TRPM2-TE—55]” was run?
**A.** 30%

**Q.** And the “knock-out of TRPM2-TE transcripts/molecules” value [2]?
**A.** 56%

**Q.** What about the “level of apoptosis vs. the control siRNA or the mock transfected cells” value [3] of the same substance?
**A.** significant increase

**Q.** Which results are given for “5′-CCAGUAACUCCGCCCAAAU(dTdT)-3′ [TRPM2-AS—657]”?
**A.** knock-down of TRPM2-AS transcript expression [1]: 69%; knock-out of TRPM2-TE transcripts/molecules [2]: 84%; level of apoptosis vs. the control siRNA or the mock transfected cells [3]: significant increase

**Q.** Which results are given for “5′-AGGUAGUGUAAUCGCCUUG(dTdT)-3′ [non-specific siRNA, reference compound]”?
**A.** knock-down of TRPM2-AS transcript expression [1]: No significant down-regulation; knock-out of TRPM2-TE transcripts/molecules [2]: No significant down-regulation

**Q.** How did the “methylation of CpG island clones (5 clones sequenced)” value [4] turn out when “TCCT^mCGGGCTGCTGAGTTT^mCGC^mCGGCCC (DNA TCCTCGGGCTGCTGAGTTTCGCCGGCCC; 5-methylcytosine modifications, chemistry not fully specified) [MOS]” was run?
**A.** non-methylation

**Q.** For “5′-CCACUUACUCAUCCAAGAA(dTdT)-3′ [TRPM2-AS—734]”, which “knock-down of TRPM2-AS transcript expression” value [1] is on record?
**A.** 75%

**Q.** And the “knock-out of TRPM2-TE transcripts/molecules” value [2]?
**A.** 70%

**Q.** And the “level of apoptosis vs. the control siRNA or the mock transfected cells” value [3]?
**A.** significant increase
